{"source": "patent US20100008965A1", "about": "“BIOCOMPATIBLE MEDICAL PRODUCTS HAVING ENHANCED ANTI-THROMBOGENIC PROPERTIES” (priority 2008, published 2010)", "format_in_all_cases": "cell-based, human", "key": {"[1]": {"system": "HCAEC", "assay": "HCAEC cell binding assay to immobilized fibronectin polypeptides (crystal violet)", "settings": "immobilized peptide, 8 h, on average", "method": "Human coronary artery endothelial cell (HCAEC) and human umbilical vein endothelial cell (HUVEC) primary human cells were obtained (Cambrex Corporation, East Rutherford, N.J.) and maintained according to the manufacturer's instructions at 37° C. and 5% CO2. HCAEC were grown in microvascular endothelial cell medium (EBM-2 MV, Cambrex) supplemented with 5% fetal bovine serum, 0.1% human epidermal growth factor, 0.04% hydrocortisone, 0.1% vascular endothelial growth factor, 0.4% human fibroblast growth factor-B, 0.1% R^3-insulin-like growth factor-1, 0.1% ascorbic acid, and 0.1% gentamicin and amphotericin-B (GA-1000). HUVEC were grown in endothelial cell medium (EBM, Cambrex) supplemented with 2% fetal bovine serum, 0.4% bovine brain extract, 0.1% human epidermal growth factor, 0.1% hydrocortisone, and 0.1% gentamicin and amphotericin-B (GA-1000). HCAEC and HUVEC were subcultured at 90-95% confluence using 0.05% trypsin-EDTA (Invitrogen, Carlsbad, Calif.) and used for experiments between passages 3-7 (HUVEC) or 5-11 (HCAEC).\nHCAEC or HUVEC cell binding assays to immobilized recombinant fibronectin polypeptides were performed in order to ascertain which polypeptide(s) maximally support(s) alpha-4 integrin-mediated cell adhesion. Connecting Segment-1 (SEQ ID NO:1), EILDV (SEQ ID NO:2), RGDS (SEQ ID NO:3) (positive control), RGES (SEQ ID NO:4) (negative control), and EILEVPST (SEQ ID NO:5) (negative control) and were immobilized by drying overnight at room temperature in Immobilizer™ Amino 96-well microplates (Nalge Nunc International, Rochester, N.Y.). RGES, EILDV, and EILEVPST were incubated at a molar equivalent concentration equal to 200 μg RGDS per well. CS-1 was incubated at 50 μg/well. On a molar basis per well, this equates to approximately twenty-fold less CS-1 relative to RGDS. […] Cells were manually counted, and their concentration adjusted to yield a total cell population of 5×10^4 cells/well. […] Spectrometric absorbance values were read at 562 nm at room temperature using a ThermoMax microplate reader (Molecular Devices Corporation, Sunnyvale, Calif.)."}, "[2]": {"system": "HCAEC", "assay": "HCAEC retention under unidirectional fluid flow", "settings": "15 dyne/cm^2, thirty minutes", "method": "(§1) In addition to the above, 75×38×1 mm glass microscope slides (Fisher Scientific Research, Pittsburgh, Pa.) were sterilized and coated overnight with human plasma fibronectin or CS-1 peptide at 5 μg/cm^2, or with PBS only. Slides were incubated for one hour at room temperature with a 0.01% (w/v) sterile-filtered BSA solution. HCAEC or HUVEC were seeded in basal medium on slides at 1.85×10^4 cells/cm^2 and permitted to adhere for eight hours under static conditions at 37° C. Fluid flow was performed using parallel plate flow chambers connected to fluid flow loops, as described in Pavalko et al., Fluid shear stress inhibits TNF-alpha-induced apoptosis in osteoblasts: a role for fluid shear stress-induced activation of PI3-kinase and inhibition of caspase-3. J Cell Phys 194, 194, 2002. Briefly, endothelial cell-seeded slides were secured within flow chambers and connected to fluid flow loops. All flows were performed in a 37° C. environment with serum-free culture medium that was continually bathed in a 5% CO2 atmosphere. […] Fluorescence micrographs were captured as described above. […] Nuclei were counted from five equally distributed visual fields per slide and pooled together for each substrate condition. Data was calculated as percent (%) cell retention, where % retention=[(average nuclei count)flow÷(average nuclei count)static]×100."}, "[3]": {"system": "HUVEC", "assay": "HUVEC retention under unidirectional fluid flow", "settings": "15 dyne/cm^2, thirty minutes; CS-1 p=0.1, fibronectin p=0.07", "method": "as §1"}}, "data": [{"substance": "CS-1: full-length 25 amino acid polypeptide, first 25 amino acid sequence of the fibronectin type IIICS domain (DELPQLVTLPHPNLHGPEILDVPST; Homo sapien)", "values": [{"measurement": "more of the total HCAEC population adhered relative to RGES", "setting": "[1]", "value": "about 20%"}, {"measurement": "HCAEC percent retention versus non-ECM-coated control substrate", "setting": "[2]; p<0.05", "value": "statistically greater"}, {"measurement": "HCAEC percent retention versus fibronectin substrate", "setting": "[2]; p=0.9", "value": "not statistically different"}, {"measurement": "HUVEC percent retention versus control substrate", "setting": "[3]", "value": "not statistically distinguishable from the control substrate"}]}]}
